The values that follow come from patent publication US12458673B2, “Use of specific phages for the treatment of nontuberculosis mycobacteria (NTM) infections” (priority 2019, dated 2025).

The subject of this experiment is M. abscessus clinical isolates. The experiment in a line: Antibiotic resistance profile of clinical isolates.

Consider Trimethoprim/Sulfa, for which the “Antibiotic Susceptibility” value worked out at 1.
